Our source for the TGI values is PubChem BioAssay (NCI).

Among the test systems are HT29 colon; IGROV1 ovarian; M14 melanoma; NCI-H23 lung; NCI-H460 lung; OVCAR-4 ovarian; OVCAR-8 ovarian; PC-3 prostate; RPMI-8226 leukemia; SF-295 CNS; SN12C renal; SNB-19 CNS; SNB-75 CNS; TK-10 renal.
Assay in all cases: NCI tumour cell line growth inhibition, 48 h

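Method: 48-hour compound exposure of cells in 96-well plates, five concentrations, linear interpolation of endpoints. At the TGI there is no net growth.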

Turning to `O=C(N/N=C/C=C/c1ccc([N+](=O)[O-])o1)c1ccc(Br)s1`, the TGI was 34.2 µM in the test with HT29 colon; 16.4 µM with IGROV1 ovarian; 42.1 µM in the test with M14 melanoma; 33.5 µM in the test on NCI-H23 lung; over 100 µM in the test on NCI-H460 lung; 40.2 µM in the test with OVCAR-4 ovarian. For the same compound, the TGI with OVCAR-8 ovarian is 46.7 µM; in the test on PC-3 prostate it was 49.7 µM; in the test on RPMI-8226 leukemia it was 23.4 µM; in the test with SF-295 CNS, over 100 µM; in the test with SN12C renal it was 70.5 µM; in the test with SNB-19 CNS, 78.9 µM. The TGI in the test with SNB-75 CNS was over 100 µM; in the test with TK-10 renal, 46.5 µM.

As for `O=c1c[n+](-c2ccccc2)[nH]o1`, the TGI in the test on HT29 colon, in the test on IGROV1 ovarian, in the test with M14 melanoma, with NCI-H23 lung, in the test on NCI-H460 lung and in the test on OVCAR-4 ovarian was over 100 µM in each case. Besides, the TGI in the test on PC-3 prostate, in the test with RPMI-8226 leukemia, in the test with SF-295 CNS, in the test with SN12C renal, in the test on SNB-19 CNS and with SNB-75 CNS was over 100 µM throughout. The compound also came in with a TGI in the test with TK-10 renal of over 100 µM.

On to `C=CCOC(=O)CCCCCCCCCCCCCCCOC(=O)c1c(CCC[C@@H](C)O[Si](C)(C)C(C)(C)C)nc(=O)n2c1CC[C@H]2CC1(CC/C=C\[C@H](CC)O[Si](C(C)C)(C(C)C)C(C)C)OCCO1`, for which the TGI with M14 melanoma, with NCI-H23 lung, in the test on NCI-H460 lung, in the test with OVCAR-4 ovarian, in the test with PC-3 prostate and in the test on RPMI-8226 leukemia was over 100 µM each time. For the same compound, the TGI with SF-295 CNS, in the test on SN12C renal, in the test with SNB-19 CNS, in the test on SNB-75 CNS and with TK-10 renal was over 100 µM throughout.

Turning to `C[C@@H]1OC(=O)C[C@H]2CC(=O)N(CCC3CN(S(=O)(=O)C(F)(F)F)c4ccc(Cc5ccc6c(c5)C(CCN5C[C@H]7[C@@H](CC(=O)O[C@H]7C)CC5=O)CN6S(=O)(=O)C(F)(F)F)cc43)C[C@@H]21` (stereo partly specified), the TGI with M14 melanoma, in the test with NCI-H23 lung, in the test with NCI-H460 lung, with OVCAR-4 ovarian, in the test on OVCAR-8 ovarian and in the test on PC-3 prostate was over 100 µM throughout. The TGI in the test on RPMI-8226 leukemia, in the test with SF-295 CNS, in the test on SNB-19 CNS, with SNB-75 CNS and with TK-10 renal was over 100 µM throughout.

As to `Cc1ccc(S(=O)C[C@@]2(C(F)F)NC(=O)NC2=O)cc1` (stereo partly specified), the TGI in the test on HT29 colon, with IGROV1 ovarian, in the test on M14 melanoma, with NCI-H23 lung, with NCI-H460 lung and with OVCAR-4 ovarian was over 100 µM in each case. For the same compound, the TGI in the test with OVCAR-8 ovarian, in the test on PC-3 prostate, in the test on RPMI-8226 leukemia, in the test with SF-295 CNS, in the test on SNB-19 CNS and with SNB-75 CNS was over 100 µM throughout. In addition, the TGI with TK-10 renal was over 100 µM.

In the case of `CN(C)CCCNC(=O)c1cc(NC(=O)c2cc(NC(=O)[C@H]3C[C@@H]3C(=O)Nc3cc(C(=O)Nc4cc(C(=O)NCCCN(C)C)n(C)c4)n(C)c3)cn2C)cn1C`, the TGI with HT29 colon, in the test on IGROV1 ovarian, with M14 melanoma, in the test with NCI-H23 lung, with NCI-H460 lung and with OVCAR-4 ovarian was over 100 µM each time. The TGI in the test with OVCAR-8 ovarian, in the test on PC-3 prostate, in the test on RPMI-8226 leukemia, in the test with SF-295 CNS, with SN12C renal and with SNB-19 CNS was over 100 µM each time. In the test with SNB-75 CNS, this compound displayed a TGI of over 100 µM.

In the case of `NC1=NN(c2ccccc2)C2(c3ccncc3C(=O)O)C1C(N)=NN2c1ccccc1` (stereo unspecified), the TGI in the test on HT29 colon, in the test on IGROV1 ovarian, with M14 melanoma, in the test with NCI-H23 lung, in the test on NCI-H460 lung and with OVCAR-4 ovarian was over 100 µM each time. For the same compound, the TGI with OVCAR-8 ovarian, in the test with PC-3 prostate, in the test with RPMI-8226 leukemia, in the test with SF-295 CNS, in the test on SN12C renal and in the test with SNB-19 CNS was over 100 µM throughout. In the test with SNB-75 CNS, the TGI was over 100 µM.

Regarding `COC(=O)c1cc(-c2ccc(-c3ccc(O)cc3)cc2)cc(-c2ccc(-c3ccc(O)cc3)cc2)c1`, the TGI in the test with IGROV1 ovarian amounted to 21.1 µM; with M14 melanoma, 30.5 µM; with NCI-H23 lung, 21 µM; with NCI-H460 lung, 35 µM; in the test with OVCAR-4 ovarian, 35.9 µM; with PC-3 prostate it was 31 µM. The TGI is 27.5 µM in the test with RPMI-8226 leukemia; 20.2 µM with SF-295 CNS; 27 µM with SN12C renal; 32.8 µM in the test on SNB-19 CNS; 27.8 µM in the test with SNB-75 CNS; 26.7 µM in the test with TK-10 renal.

Take `O=c1oc2cccnc2n1CCN1CCN(c2ccc(Oc3ccccc3)cc2)CC1`: the TGI in the test with HT29 colon was over 100 µM; in the test on IGROV1 ovarian it was over 100 µM; in the test on M14 melanoma, over 100 µM; with NCI-H23 lung, over 100 µM; in the test with NCI-H460 lung it was over 100 µM; with OVCAR-4 ovarian it was 75.4 µM. Further, the TGI with OVCAR-8 ovarian, in the test on PC-3 prostate, in the test with RPMI-8226 leukemia, in the test on SF-295 CNS, in the test on SNB-19 CNS and with SNB-75 CNS was over 100 µM throughout. Besides, the TGI in the test with TK-10 renal is over 100 µM.

Take `NC(N)=NS(=O)(=O)c1ccc(Nc2c3ccccc3nc3c(C(=O)NC(CO)(CO)CO)cccc23)cc1`: the TGI in the test on HT29 colon was 61.1 µM; in the test on IGROV1 ovarian, over 100 µM; in the test on M14 melanoma it was 68.3 µM; with NCI-H23 lung, over 100 µM; with NCI-H460 lung it was 16.6 µM; in the test on OVCAR-8 ovarian, over 100 µM. The TGI with PC-3 prostate was over 100 µM; in the test on RPMI-8226 leukemia, 58.5 µM; in the test on SF-295 CNS it was over 100 µM; with SN12C renal, over 100 µM; in the test with SNB-19 CNS, over 100 µM; in the test with SNB-75 CNS, 18.7 µM. The compound also came in with a TGI with TK-10 renal of 94.5 µM.
